This experiment addresses T1, Recombinant (1-346) HPK1 (h) (Homo sapiens, UniProt Q92918).
T1 construct: Recombinant (1-346) HPK1 (h) is incubated with 8 mM MOPS pH 7.0
T1 sequence (Q92918 1-346): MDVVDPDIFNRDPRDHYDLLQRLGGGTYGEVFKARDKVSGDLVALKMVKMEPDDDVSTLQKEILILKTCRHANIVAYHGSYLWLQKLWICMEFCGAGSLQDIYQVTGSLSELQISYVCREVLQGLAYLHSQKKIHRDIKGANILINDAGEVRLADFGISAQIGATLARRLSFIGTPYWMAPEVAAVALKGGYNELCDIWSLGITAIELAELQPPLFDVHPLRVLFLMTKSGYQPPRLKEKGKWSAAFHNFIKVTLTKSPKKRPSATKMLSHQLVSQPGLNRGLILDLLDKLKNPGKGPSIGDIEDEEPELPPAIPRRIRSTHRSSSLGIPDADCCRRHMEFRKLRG
The experiment is described as follows: HPK1 Human STE Kinase Enzymatic Radiometric Assay. Format: biochemical. The following applies: read-out: HPK1 IC50 nM Range*. Here is the method: A stock solution of 10 mM of test compound is prepared in DMSO. The compound plate was prepared by 3-fold and 9-point serial dilutions. […] The reaction is initiated by The addition of the Mg/ATP mix. After incubation for 40 minutes at RT, the reaction is stopped by the addition of phosphoric acid to a concentration of 0.5%.
By IC50 is commonly meant the concentration that gives 50% inhibition. Consider `CC(C)N1CCN(c2ccc(-c3cc(-c4ccc5c(=O)[nH]c(Cl)nc5c4)c(N)nc3F)cc2)CC1` [I-418, 7-(2-amino-6-fluoro-5-(4-(4-isopropylpiperazin-1-yl)phenyl)pyridin-3-yl)-2-chloroquinazolin-4(3H)-one], for which the IC50 was in the range of 101 to 1000 nM.

With `CO[C@H]1CCN(Cc2nc(-c3cc(-c4ccc5c(c4)CCNC5=O)c(N)nc3F)ccc2N2CCOCC2)C1` [I-584, (S)-6-(6′-amino-2-fluoro-6-((3-methoxypyrrolidin-1-yl)methyl)-5-morpholino-[2,3′-bipyridin]-5′-yl)-3,4-dihydroisoquinolin-1(2H)-one], the 50% inhibitory concentration (IC50) was in the range of 0.1 to 10 nM.

With `Nc1nc(F)c(-c2ccc(CN3CCOCC3)cc2)cc1-c1cc(F)c2c(c1)CCNC2=O` [I-360, 6-(2-amino-6-fluoro-5-(4-(morpholinomethyl)phenyl)pyridin-3-yl)-8-fluoro-3,4-dihydroisoquinolin-1(2H)-one], the IC50 fell in the range of 0.1 to 10 nM.

On to `COCCN1CCc2c(C)cc(-c3cc(-c4ccc5c(c4)CCNC5=O)c(N)nc3F)cc2C1` [I-448, 6-(2-amino-6-fluoro-5-(2-(2-methoxyethyl)-5-methyl-1,2,3,4-tetrahydroisoquinolin-7-yl)pyridin-3-yl)-3,4-dihydroisoquinolin-1(2H)-one], for which the IC50 lay within 0.1 to 10 nM.

For the molecule `CN(C)Cc1nc(-c2cc(-c3cc4c(cc3F)C(=O)NCC4)c(N)nc2F)ccc1C1CCOCC1` [I-601, 6-(6′-amino-6-((dimethylamino)methyl)-2′-fluoro-5-(tetrahydro-2H-pyran-4-yl)-[2,3′-bipyridin]-5′-yl)-7-fluoro-3,4-dihydroisoquinolin-1(2H)-one], the IC50 was 0.1 to 10 nM.

Regarding `COCCN(C)Cc1cc(-c2cc(-c3ccc4c(c3)CCNC4=O)c(N)nc2F)ccc1N1CCOCC1` [I-553, 6-(2-amino-6-fluoro-5-(3-(((2-methoxyethyl)(methyl)amino)methyl)-4-morpholinophenyl)pyridin-3-yl)-3,4-dihydroisoquinolin-1(2H)-one], the IC50 lay within 0.1 to 10 nM.

Regarding `COC1CN(Cc2cc(-c3cc(-c4ccc5c(c4)CCNC5=O)c(N)nc3F)ccc2N2CCOCC2)C1` [I-522, 6-(2-amino-6-fluoro-5-(3-((3-methoxyazetidin-1-yl)methyl)-4-morpholinophenyl)pyridin-3-yl)-3,4-dihydroisoquinolin-1(2H)-one], the half-inhibitory concentration (IC50) was 11 to 100 nM.

For `CN1CC2(CCN(c3ccc(-c4cc(-c5ccc6c(c5)CCNC6=O)c(N)nc4F)cc3)CC2)C1` [I-430, 6-(2-amino-6-fluoro-5-(4-(2-methyl-2,7-diazaspiro[3.5]nonan-7-yl)phenyl)pyridin-3-yl)-3,4-dihydroisoquinolin-1(2H)-one], the half-maximal inhibitory concentration (IC50) is 0.1 to 10 nM.

As to `CN(C)[C@@H]1CCOc2ccc(-c3cc(-c4ccc5c(=O)[nH]cc(F)c5c4)c(N)nc3F)cc21` [I-631, (R)-6-(2-amino-5-(4-(dimethylamino)chroman-6-yl)-6-fluoropyridin-3-yl)-4-fluoroisoquinolin-1(2H)-one], the IC50 was 11 to 100 nM.

Regarding `CN(C)Cc1cc(-c2cc(-c3ccc4c(c3)CCNC4=O)c(N)nc2F)ccc1C1CCOCC1` [I-645, 6-(2-amino-5-(3-((dimethylamino)methyl)-4-(tetrahydro-2H-pyran-4-yl)phenyl)-6-fluoropyridin-3-y)-3,4-dihydroisoquinolin-1(2H)-one], the half-maximal inhibitory concentration (IC50) fell in the range of 0.1 to 10 nM.

For `CN(Cc1cc(-c2cc(-c3cc4c(cc3F)C(=O)NCC4)c(N)nc2F)ccc1N1CCOCC1)CC1CCCO1` (stereo not shown) [I-619, 6-(2-amino-6-fluoro-5-(3-((methyl((tetrahydrofuran-2-yl)methyl)amino)methyl)-4-morpholinophenyl)pyridin-3-yl)-7-fluoro-3,4-dihydroisoquinolin-1(2H)-one], the half-inhibitory concentration (IC50) is 11 to 100 nM.

As for `Cc1c[nH]c(=O)c2ccc(-c3cc(-c4ccc(N5CCN(C6CCC6)CC5)cc4)c(F)nc3N)cc12` [I-545, 6-(2-amino-5-(4-(4-cyclobutylpiperazin-1-yl)phenyl)-6-fluoropyridin-3-yl)-4-methylisoquinolin-1(2H)-one], the concentration for half-maximal inhibition (IC50) was 0.1 to 10 nM.

In the case of `CN(C)Cc1cc(-c2cc(-c3cc4c(cc3F)C(=O)NCC4)c(N)nc2F)ccc1N1CCN(C2CC2)CC1` [I-494, 6-(2-amino-5-(4-(4-cyclopropylpiperazin-1-yl)-3-((dimethylamino)methyl)phenyl)-6-fluoropyridin-3-yl)-7-fluoro-3,4-dihydroisoquinolin-1(2H)-one], the IC50 was in the range of 11 to 100 nM.

In the case of `Cc1[nH]c(=O)c2c(F)cc(-c3cc(-c4ccc(N5CCN(CC6CC6)CC5)cc4)c(F)nc3N)cc2c1F` [I-529, 6-(2-amino-5-(4-(4-(cyclopropylmethyl)piperazin-1-yl)phenyl)-6-fluoropyridin-3-yl)-4,8-difluoro-3-methylisoquinolin-1(2H)-one], the IC50 was 0.1 to 10 nM.

As to `CC(=O)N1CCC(Oc2ccc(-c3cc(-c4cc5c(cc4F)C(=O)NCC5)c(N)nc3F)cc2C#N)CC1` [I-291, 2-((1-acetylpiperidin-4-yl)oxy)-5-(6-amino-2-fluoro-5-(7-fluoro-1-oxo-1,2,3,4-tetrahydroisoquinolin-6-yl)pyridin-3-yl)benzonitrile], the 50% inhibitory concentration (IC50) lay within 0.1 to 10 nM.

As to `CCN(C)Cc1c(N2CCOCC2)ccc(-c2cc(-c3ccc4c(c3)CCNC4=O)c(N)nc2F)c1F` [I-610, 6-(2-amino-5-(3-((ethyl(methyl)amino)methyl)-2-fluoro-4-morpholinophenyl)-6-fluoropyridin-3-yl)-3,4-dihydroisoquinolin-1(2H)-one], the IC50 is 11 to 100 nM.

As for `CN(C)Cc1cc(-c2cc(-c3ccc4c(c3)CCNC4=O)c(N)nc2F)ncc1N1CCOCC1` [I-613, 6-(6′-amino-4-((dimethylamino)methyl)-2′-fluoro-5-morpholino-[2,3′-bipyridin]-5′-yl)-3,4-dihydroisoquinolin-1(2H)-one], the IC50 lay in the range of 11 to 100 nM.

In the case of `Nc1nc(F)c(-c2ccc(N3CCOCC3)c(CN3CCC3)c2F)cc1-c1cc2c(cc1F)C(=O)NCC2` [I-608, 6-(2-amino-5-(3-(azetidin-1-ylmethyl)-2-fluoro-morpholinophenyl)-6-fluoropyridin-3-yl)-7-fluoro-3,4-dihydroisoquinolin-1(2H)-one], the half-maximal inhibitory concentration (IC50) was 11 to 100 nM.

`CCN(C)Cc1cc(-c2cc(-c3ccc4c(=O)[nH]cc(C)c4c3)c(N)nc2F)ccc1OC` [I-634, 6-(2-amino-5-(3-((ethyl(methyl)amino)methyl)-4-methoxyphenyl)-6-fluoropyridin-3-yl)-4-methylisoquinolin-1(2H)-one]: the IC50 was 11 to 100 nM.

With `Nc1nc(F)c(-c2cccc([C@@H]3CCCN3)c2)cc1-c1ccc2c(c1)CCNC2=O` [I-646, (S)-6-(2-amino-6-fluoro-5-(3-(pyrrolidin-2-yl)phenyl)pyridin-3-yl)-3,4-dihydroisoquinolin-1(2H)-one], the half-inhibitory concentration (IC50) lay in the range of 0.1 to 10 nM.

Regarding `CC(C)(C)OC(=O)N1CCN(c2ccc(-c3cc(-c4ccc5c(c4)CCNC5=O)c(N)nc3F)nc2)CC1` [I-590, tert-butyl4-(6′-amino-2′-fluoro-5′-(1-oxo-1,2,3,4-tetrahydroisoquinolin-6-yl)-[2,3′-bipyridin]-5-yl) piperazine-1-carboxylate], the IC50 fell in the range of 0.1 to 10 nM.

`C[C@@H]1CN(c2ccc(-c3cc(-c4cc5c(cc4F)C(=O)NCC5)c(N)nc3F)cc2CN(C)C)C[C@H](C)O1` [I-597, 6-(2-amino-5-(3-((dimethylamino)methyl)-4-((2R,6S)-2,6-dimethylmorpholino)phenyl)-6-fluoropyridin-3-yl)-7-fluoro-3,4-dihydroisoquinolin-1(2H)-one]: the IC50 lay in the range of 11 to 100 nM.

`Nc1nc(F)c(-c2ccc(N3CCN(CC4CC4)CC3)cc2)cc1-c1cc(F)c2c(c1)OCCNC2=O` [I-635, 8-(2-amino-5-(4-(4-(cyclopropylmethyl)piperazin-1-yl)phenyl)-6-fluoropyridin-3-yl)-6-fluoro-3,4-dihydrobenzo[f][1,4]oxazepin-5(2H)-one]: the IC50 lay within 0.1 to 10 nM.

As to `COc1ccc(-c2cc(-c3ccc4c(c3)CCNC4=O)c(N)nc2F)cc1CN(C)C` [I-459, 6-(2-amino-5-(3-((dimethylamino)methyl)-4-methoxyphenyl)-6-fluoropyridin-3-yl)-3,4-dihydroisoquinolin-1(2H)-one], the IC50 lay within 11 to 100 nM.

Turning to `Cc1nc2cc(-c3cc(-c4ccc(C5CCOCC5)c([C@@H]5CCCN5)c4)c(F)nc3N)ccc2c(=O)[nH]1` [I-643, (S)-7-(2-amino-6-fluoro-5-(3-(pyrrolidin-2-yl)-4-(tetrahydro-2H-pyran-4-yl)phenyl)pyridin-3-yl)-2-methylquinazolin-4(3H)-one], the IC50 is 11 to 100 nM.

Take `Cc1[nH]c(=O)c2ccc(-c3cc(-c4ccc(C5CCOCC5)c(CN(C)C)c4)c(F)nc3N)cc2c1F` [I-521, 6-(2-amino-5-(3-((dimethylamino)methyl)-4-(tetrahydro-2H-pyran-4-yl)phenyl)-6-fluoropyridin-3-yl)-4-fluoro-3-methylisoquinolin-1(2H)-one]: the IC50 is 11 to 100 nM.

On to `COC1(C)NC(=O)c2ccc(-c3cc(-c4ccc(N5CCN(C(C)C)CC5)cc4)c(F)nc3N)cc2C1(F)F` (stereo not shown) [I-450, 6-(2-amino-6-fluoro-5-(4-(4-isopropylpiperazin-1-yl)phenyl)pyridin-3-yl)-4,4-difluoro-3-methoxy-3-methyl-3,4-dihydroisoquinolin-1(2H)-one], for which the IC50 lay in the range of 11 to 100 nM.

Turning to `CCN(C)Cc1cc(-c2cc(-c3ccc4c(=O)[nH]cc(F)c4c3)c(N)nc2F)ccc1OC` [I-633, 6-(2-amino-5-(3-((ethyl(methyl)amino)methyl)-4-methoxyphenyl)-6-fluoropyridin-3-yl)-4-fluoroisoquinolin-1(2H)-one], the IC50 was 11 to 100 nM.

For the origin of these results see patent US20240343704A1, “HALO-SUBSTITUTED AMINO PYRIDINE COMPOUNDS AS INHIBITORS OF THE HAEMATOPOIETIC PROGENITOR KINASE 1 (HPK1)” (priority 2021, published 2024).
